# Assay results published in patent publication US8080540B2, “Therapeutically active triazoles and their use” (Abbott Products GmbH, priority 2006, dated 2011).
# Biological target: T1, recombinant human 17β-HSD1 (Homo sapiens, UniProt P14061)
# T1 construct: made in house; host or cells: Sf9 insect cells (baculovirus, Bac to Bac Expression System); microsomal fraction used
# T1 sequence (P14061 1-328): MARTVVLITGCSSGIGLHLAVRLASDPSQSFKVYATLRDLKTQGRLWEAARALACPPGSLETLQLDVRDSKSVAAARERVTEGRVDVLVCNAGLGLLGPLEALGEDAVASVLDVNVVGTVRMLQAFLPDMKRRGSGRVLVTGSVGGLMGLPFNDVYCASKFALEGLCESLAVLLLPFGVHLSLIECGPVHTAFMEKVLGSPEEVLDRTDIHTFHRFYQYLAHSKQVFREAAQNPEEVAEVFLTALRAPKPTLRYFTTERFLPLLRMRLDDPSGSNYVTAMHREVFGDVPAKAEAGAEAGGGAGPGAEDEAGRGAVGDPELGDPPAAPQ
# Assay: Inhibition of recombinant human 17β-HSD1 (HPLC assay, conversion of 3H-estrone to estradiol)
# Assay type: biochemical
# Settings: 0.5 h, 30 nM 3H-estrone, 1 mM NADPH, 30 min RT, read-out: inhibition of rec. 17 β-HSD1; for inhibition at 0.1 µM: 100 nM inhibitor; for inhibition at 1 µM: 1 μM inhibitor
# Protocol: 17β-HSD1 purification: Recombinant baculovirus was generated by the “Bac to Bac Expression System” (Invitrogen). Recombinant bacmid was transfected to Sf9 insect cells using “Cellfectin Reagent” (Invitrogen). 60 h later cells were harvested; the microsomal fraction was isolated as described by Puranen et al. (1994). Aliquots were stored frozen until determination of enzymatic activity. Assay—Inhibition of recombinant human 17β-HSD1: Recombinant protein (0.1 μg/ml) was incubated in 20 mM KH2PO4 pH 7.4 with 30 nM 3H-estrone and 1 mM NADPH for 30 min at RT, in the presence of potential inhibitors at concentrations of 1 μM or 0.1 μM. Inhibitor stock solutions were prepared in DMSO. Final concentration of DMSO was adjusted to 1% in all samples. The enzyme reaction was stopped by addition of 10% trichloroacetic acid (final concentration). Samples were centrifuged in a microtiter plate at 4000 rpm for 10 min. Supernatants were applied to reverse phase HPLC on a Waters Symmetry C18 column, equipped with a Waters Sentry Guard column. Isocratic HPLC runs were performed at RT at a flow rate of 1 ml/min of acetonitrile:water 48:52 as running solvent. Radioactivity was monitored in the eluate by a Packard Flow Scintillation Analyzer. Total radioactivity for estrone and estradiol were determined in each sample and percent conversion of estrone to estradiol was calculated according to the following formula: [formula] • Percent inhibition was calculated as follows: % inhibition=100−% conversion The values “% inhibition” were determined for exemplified compounds, and the results are summarized in table 4 (for 17β-HSD1).
SMILES,inhibition at 0.1 µM [%],inhibition at 1 µM [%]
"C[C@]12CC[C@@H]3c4ccc(O)cc4CC[C@H]3[C@@H]1[C@H](CCn1cc(-c3cc(F)cc(F)c3)nn1)CC2=O [Compound 5, 3-Hydroxy-15β-{2-[4-(3,5-Difluoro-phenyl)-[1,2,3]triazol-1-yl]-ethyl}-estra-1,3,5(10)-trien-17-one]",87,95
"C[C@]12CC[C@@H]3c4ccc(O)cc4CC[C@H]3[C@@H]1[C@@H](CCCn1cc(CCc3ccccc3)nn1)CC2=O [Compound 16, 3-Hydroxy-15α-[3-(4-phenethyl-[1,2,3]triazol-1-yl)-propyl]-estra-1,3,5(10)-trien-17-one]",38,89
"COc1ccc(-c2cn(CCC[C@H]3CC(=O)[C@@]4(C)CC[C@@H]5c6ccc(O)cc6CC[C@H]5[C@H]34)nn2)cc1 [Compound 20, 3-Hydroxy-15α-{3-[4-(4-methoxy-phenyl)-[1,2,3]triazol-1-yl]-propyl}-estra-1,3,5(10)-trien-17-one]",51,87
"Cc1ccc(-c2cn(CCC[C@H]3CC(=O)[C@@]4(C)CC[C@@H]5c6ccc(O)cc6CC[C@H]5[C@H]34)nn2)cc1 [Compound 25, 3-Hydroxy-15α-[3-(4-p-tolyl-[1,2,3]triazol-1-yl)-propyl]-estra-1,3,5(10)-trien-17-one]",49,85
C[C@]12CC[C@@H]3c4ccc(O)cc4CC[C@H]3[C@@H]1[C@H](CCCCn1cc(CCc3ccccc3)nn1)CC2=O [Compound 33],20,80
COc1ccc2c(c1)CC[C@H]1[C@@H]3[C@H](CCCn4cc(-c5ccccc5[N+](=O)[O-])nn4)CC(=O)[C@@]3(C)CC[C@H]21 [Compound 37],25,80
COc1ccc2c(c1)CC[C@H]1[C@@H]3[C@H](CCCn4cc(C5CC5)nn4)CC(=O)[C@@]3(C)CC[C@H]21 [Compound 41],23,77
CC(C)CCc1cn(CCCC[C@@H]2CC(=O)[C@@]3(C)CC[C@@H]4c5ccc(O)cc5CC[C@H]4[C@H]23)nn1 [Compound 48],21,73
CC(C)Cc1cn(CCCCCC[C@@H]2CC(=O)[C@@]3(C)CC[C@@H]4c5ccc(O)cc5CC[C@H]4[C@H]23)nn1 [Compound 58],20,70
COc1ccc2c(c1)CC[C@H]1[C@@H]3[C@H](CCCn4cc(-c5ccsc5)nn4)CC(=O)[C@@]3(C)CC[C@H]21 [Compound 59],18,69
COc1ccc2c(c1)CC[C@H]1[C@@H]3[C@H](CCCn4cc(-c5ccc(CO)cc5)nn4)CC(=O)[C@@]3(C)CC[C@H]21 [Compound 60],19,69
CC(C)CCc1cn(CCCCCC[C@@H]2CC(=O)[C@@]3(C)CC[C@@H]4c5ccc(O)cc5CC[C@H]4[C@H]23)nn1 [Compound 69],30,64
C[C@]12CC[C@@H]3c4ccc(O)cc4CC[C@H]3[C@@H]1[C@H](CCCCCCn1cc(-c3cccc(O)c3)nn1)CC2=O [Compound 100],7,48
COc1ccc2c(c1)CC[C@H]1[C@@H]3[C@H](CCCCn4cc(C5CC5)nn4)CC(=O)[C@@]3(C)CC[C@H]21 [Compound 111],4,43
COc1ccc2c(c1)CC[C@H]1[C@@H]3[C@H](CCCCn4cc(-c5ccc(C)cc5)nn4)CC(=O)[C@@]3(C)CC[C@H]21 [Compound 112],12,43
COc1ccc2c(c1)CC[C@H]1[C@@H]3[C@H](CCCCn4cc(CO)nn4)CC(=O)[C@@]3(C)CC[C@H]21 [Compound 122],5,38
